Assay results from ChEMBL document CHEMBL1136296, “3-cyanoindole-based inhibitors of inosine monophosphate dehydrogenase: synthesis and initial structure-activity relationships” (Bioorg Med Chem Lett, 2003).
pIC50: −log10 of the molar value.

Key:
[1] = target: Inosine-5'-monophosphate dehydrogenase 2 (Homo sapiens, UniProt P12268); experiment: Inhibitory activity tested against inosine-5'-monophosphate dehydrogenase 2 (IMPDH-II) enzyme
CCRF-CEM = experiment: cells; details: Homo sapiens
Description: Inhibition of CEM (human leukemia) cell proliferation.

SMILES | pIC50 [1] | pIC50 (CCRF-CEM)
COc1cc(NC(=O)Nc2cccc(C)c2)ccc1C#N | 6.54 | 
CC(=O)OCC(=O)N(C)c1ccccc1-c1cnc(Nc2ccc3c(C#N)cn(C)c3c2)o1 | 6.58 | 
COc1cc(Nc2ncc(-c3ccccc3)o2)ccc1C#N | 6.40 | 
CN(C)CCOC(=O)NCc1cccc(-c2cnc(Nc3ccc4c(C#N)cn(C)c4c3)o2)c1 | 6.68 | 5.85
Cn1cc(C#N)c2ccc(Nc3ncc(-c4cccc(CNC(=O)OCCC#N)c4)o3)cc21 | 6.62 | < 5.00
Cn1cc(C#N)c2ccc(Nc3ncc(-c4ccccc4CNC(=O)OC4CCOC4)o3)cc21 (configuration not stated) | 6.38 | < 5.00
Cc1cccc(-c2cnc(Nc3ccc4c(C#N)cn(C)c4c3)o2)c1 | 6.31 | < 5.00
Cn1cc(C#N)c2ccc(Nc3ncc(-c4ccc(CN)cc4)o3)cc21 | 6.59 | 5.55
Cc1cccc(NC(=O)Nc2ccc3c(C#N)cn(C)c3c2)c1 | 6.17 | 
Cn1cc(C#N)c2ccc(Nc3ncc(-c4ccccc4CNC(=O)OCCC#N)o3)cc21 | 6.38 | < 5.00
Cc1ccccc1-c1cnc(Nc2ccc3c(C#N)cn(C)c3c2)o1 | 6.36 | 
Cc1ccc(NC(=O)Nc2ccc3c(C#N)cn(C)c3c2)cc1 | 6.64 | 
Cn1cc(C#N)c2ccc(Nc3ncc(-c4cccc(NC(=O)c5ccccc5)c4)o3)cc21 | 6.70 | 5.46
Cc1ccc(-c2cnc(Nc3ccc4c(C#N)cn(C)c4c3)o2)cc1 | < 6.26 | 
Cn1cc(C#N)c2ccc(NC(=O)Nc3ccccc3)cc21 | 6.20 | 
Cn1cc(C#N)c2ccc(Nc3ncc(-c4ccccc4CN)o3)cc21 | 6.55 | 5.96
Cn1cc(C#N)c2ccc(Nc3ncc(-c4cccc(CNC(=O)OC5CCOC5)c4)o3)cc21 (configuration not stated) | 6.59 | < 5.00
COc1cc(Nc2ncc(-c3ccccc3N(C)C(=O)CN3CCOCC3)o2)ccc1-c1cnco1 |  | 6.28

Results, then the molecule that gave them:

pIC50 [1] | pIC50 (CCRF-CEM) | SMILES
7.08 | 5.60 | Cn1cc(C#N)c2ccc(Nc3ncc(-c4cccc(CNC(=O)c5cccc6ccccc56)c4)o3)cc21
8.22 |  | CC[C@H](CC#N)OC(=O)NCc1cccc(NC(=O)Nc2ccc(C#N)c(OC)c2)c1
7.03 | < 5.00 | CC(=O)NCc1ccc(-c2cnc(Nc3ccc4c(C#N)cn(C)c4c3)o2)cc1
6.74 | 5.31 | Cn1cc(C#N)c2ccc(Nc3ncc(-c4ccc(CNC(=O)C(C)(C)C)cc4)o3)cc21
7.40 | 5.36 | Cn1cc(C#N)c2ccc(Nc3ncc(-c4cccc(CNC(=O)c5ccc6ccccc6c5)c4)o3)cc21
7.00 | < 5.00 | Cn1cc(C#N)c2ccc(Nc3ncc(-c4ccc(CNC(=O)c5ccccc5)cc4)o3)cc21
6.74 | 5.46 | Cn1cc(C#N)c2ccc(Nc3ncc(-c4cccc(CN)c4)o3)cc21
7.48 | 5.10 | Cn1cc(C#N)c2ccc(Nc3ncc(-c4ccccc4)o3)cc21
6.89 | 5.28 | Cn1cc(C#N)c2ccc(Nc3ncc(-c4cccc(CNC(=O)c5ccccc5)c4)o3)cc21
7.80 |  | COc1cc(Nc2ncc(-c3ccccc3)o2)ccc1-c1cnco1
7.96 | 6.31 | COc1cc(NC(=O)Nc2cccc(CNC(=O)O[C@H]3CCOC3)c2)ccc1-c1cnco1 [MERIMEPODIB]
